Laboratory results published in PMC11475369, “Exploring the Potential of Synthetic Cannabinoids: Modulation of Biological Activity of Normal and Cancerous Human Colon Epithelial Cells” (Cells, 2024).

Tests used:
HT29 cells = assay: Nitric oxide (NOx) release in HT29 culture, Griess method; type: cell-based, human; settings: HT29 cancer cells, 0–200 μg/mL, 24 h
Experimental: In this spectrophotometric method, the stable end products (nitrate and nitrite) were analyzed in the normal and tumor culture supernatants after 24 h of incubation of the cells with the cannabinoids in the concentration range of 0–200 μg/mL. The Griess reaction was applied. This method involves a 2-step reaction, whose product is a red-pink azo dye. The amount of this dye is directly proportional to the amount of NO. The cells were cultured for 24 h in 24-well plates (1 mL/well, density 1 × 10^5 cells/mL); next, after withdrawing the culture fluid, the tested cannabinoids were added to the wells at a volume of 1 mL/well and the incubation was carried out for another 24 h. After the incubation, the culture media were collected and frozen at −80 °C for no longer than 1 month. For calibration and quantitative analysis, the standard curve was prepared using 0.5–25 μM sodium nitrite (NaNO2). Thawed and centrifuged (5000 rpm/5 min.) supernatant samples and the standard were poured into a 96-well flat-bottomed plate at 100 µL/well. Each sample was analyzed in triplicate. […] Finally, the absorbance of the samples was spectrophotometrically read at 570 nm using an EL800 Universal Microplate Reader (BioTek Instruments, Winooski, VT, USA).

CCD 841 CoTr cells = assay: Nitric oxide (NOx) release in CCD 841 CoTr culture, Griess method; type: cell-based, human; settings: CCD 841 CoTr normal cells, 0–200 μg/mL, 24 h
Experimental: In this spectrophotometric method, the stable end products (nitrate and nitrite) were analyzed in the normal and tumor culture supernatants after 24 h of incubation of the cells with the cannabinoids in the concentration range of 0–200 μg/mL. The Griess reaction was applied. This method involves a 2-step reaction, whose product is a red-pink azo dye. The amount of this dye is directly proportional to the amount of NO. The cells were cultured for 24 h in 24-well plates (1 mL/well, density 1 × 10^5 cells/mL); next, after withdrawing the culture fluid, the tested cannabinoids were added to the wells at a volume of 1 mL/well and the incubation was carried out for another 24 h. After the incubation, the culture media were collected and frozen at −80 °C for no longer than 1 month. For calibration and quantitative analysis, the standard curve was prepared using 0.5–25 μM sodium nitrite (NaNO2). Thawed and centrifuged (5000 rpm/5 min.) supernatant samples and the standard were poured into a 96-well flat-bottomed plate at 100 µL/well. Each sample was analyzed in triplicate. Subsequently, 100 µL/well of Griess reagent (1% sulfanilamide/0.1% N-(1-naphthyl)ethylenediamine dihydrochloride) in 3% H3PO4 was added to all wells and incubated at room temperature for 10 min. Finally, the absorbance of the samples was spectrophotometrically read at 570 nm using an EL800 Universal Microplate Reader (BioTek Instruments, Winooski, VT, USA).

SMILES	Effect on release of nitric oxide NOx (in words) (HT29 cells)	Effect on release of nitric oxide NOx (in words) (CCD 841 CoTr cells)
CCCCCc1cc2c3c(c1)OC(C)(C)C1CCC(C)(CC31)O2 (stereo not shown) [CBT, cannabicitran]	statistically insignificant stimulating effect	reduced the level of this molecule
CCCCCc1cc(O)c2c(c1)OC(C)(CCC=C(C)C)C=C2 (stereo not shown) [CBC, cannabichromene]	reduction in NOx levels with increasing cannabinoid concentration	reduction in NOx levels with increasing cannabinoid concentration
